The test system of one assay is LL37 mRNA in OBA9 cells. In words: EGCG-induced LL37 mRNA expression in OBA9 cells with or without DDX5 RNAi (RT-PCR). In kind it is cell-based, human. To be noted: EGCG 40 ng/ml, 30 minutes. The procedure: (§1) Our hypothesis that THBC induction of LL-37 expression is mediated via binding to DDX5 is further supported by the finding that inhibition of DDX5 expression in gingival epithelial cells (OBA9) reduces EGCG-mediated LL-37 expression. Confluent OBA9 cells in a tissue culture plate are treated with or without DDX5-specific siRNA sequences (three different siRNA sequences specific to DDX5 are examined). After 24 h and 48 h incubation, total RNA and proteins are extracted, respectively, from the OBA9 cells. […] The OBA9 cells pre-incubated with non-target siRNA and DDX5-siRNA for 48 hours are restimulated with EGCG (40 ng/ml) for 30 min, and mRNA expression for LL-37 and […] was detected by RT-PCR. […] Effects of DDX5-siRNA treatment on EGCG-mediated LL-37 protein expression by OBA9 cells is measured by ELISA.
After treatment of OBA9 cells with control non-target siRNA or DDX5-siRNA (#A) for 48 hours, the OBA9 cells were incubated with or without EGCG (40 ng/ml) for 30 minutes. The total RNA isolated from the OBA9 cells was subjected to RT-PCR for LL37 mRNA as well as internal control β-actin mRNA.

Assay [1] deals with LL-37 protein in cheek epithelial cells. Description: LL-37 protein expression by cheek epithelium (Western blot). In kind it is in vivo, human. To be noted: isolated cheek cells, anti-LL-37 monoclonal antibody. The source says:
(§2) Cheek epithelium is utilized for monitoring LL-37 mRNA and protein expression to determine if Trihydroxybenzoate Derivatives of the Invention can induce LL-37 in vivo. […] The isolated cheek cells are also subjected to Western blot analysis for protein expression of LL-37 by cheek epithelium using anti-LL-37 monoclonal antibody. The expression of both the proform (18 kD, also termed as hCAP18) and secreted form (4.5 kD) of LL-37 (12) in cheek epithelial cells is induced by Trihydroxybenzoate Derivatives of the Invention (e.g., EGCG (95% SIGMA), or by EGCG (90% Teavigo)).
In general terms: In western blotting, separated proteins are transferred to a membrane and probed.

Assay [2] relates to hBD2 mRNA expression in OBA9 cells. In words: hBD2 mRNA expression in human gingival epithelial cells. To be noted: 4-hour exposure, 0.1, 1.0 and 10 ug/ml. The format is cell-based. As to the method:
(§3) Both LL-37 and hBD2 mRNA expression in OBA9 cells are induced after a 4-hour exposure to green tea polyphenol extract, Teaflan 90S (EGCG 50%, ECG 13%), and purified EGCG (95% pure, SIGMA) at concentrations of 0.1, 1.0 and 10 ug/ml. EGCG increases the production of LL-37 and hBD2 at the mRNA level in the human gingival epithelial cell line OBA9 (FIG. 1) as well as the human lung carcinoma cell line A549.

Assay [3] deals with T1, DEAD box polypeptide 5 (DDX5) (Homo sapiens, UniProt P17844).
T1 construct: endogenous in cells; host or cells: OBA9 human gingival epithelial cell line (lysate)
Description: Pull down assay with benzoic acid-coupled beads and OBA9 cell lysate, Mass-Spec. The format is binding. To be noted: beads incubated with OBA9 cell lysate. An excerpt: FIG. 1 is a schematic showing a pull down assay to determine counter ligand of benzoic acids expressed on OBA9 cells is DDX5. OBA9 cells were harvested and dissolved in lysis buffer. The resulting cell lysis solution was reacted with Sephadex beads conjugated with 2,6-dihydroxy benzoic acid (DHBC) and 2,3,4-trihydroxy benzoic acid (THBC). The cellular components pulled down with beads were separated in SDS-PAGE gel, and stained with Coomassie blue. The 35 kD and 70 kD bands specific to 2,3,4-THBC were subjected to Mass-Spec analysis at Tufts University Core Facility. The procedure for pull down assay includes preparation of cell lysate from gingival epithelial cell (OBA9) culture; preparation of beads conjugated with tri-hydroxy benzoic acid (THBC); incubation of beads with OBA9 cell lysate; remove unbound protein by washing beads; the proteins bound to beads are separated in SDS-PAGE; distinct bands to 2,3,4-THBC are sent for Mass-Spec service; and identification of molecular finger print of 2,3,4-THBC binding ligand.
FIG. 2 is a schematic including the molecular finger print found in 70 kD band specific to 2,3,4-THDC that is DDX5 (SEQ ID NO: 1). The 35 kD, 70 kD and 90 kD bands specific to 2,3,4-THBC were subjected to Mass-Spec analysis service. […] Result data sheet that identified DDX5 in 70 kD band is shown.
In order to confirm if LL-37 induction in epithelial cells by EGCG is dependent on the activation of cell ligand (either cytoplasm or cell surface), or previously known anti-oxidant effects by EGCG, 3,4,5-tri-hydroxy benzoic acid-coupled beads and control 2,6-di-hydroxy benzoic acid-coupled beads are utilized to pull down the possible ligand for 3,4,5-tri-hydroxy benzoic acid. After incubation of each bead with cell lysate of OBA9, the beads are washed, and the cellular materials that bind to the beads are separated in SDS-PAGE. At least 3 bands (MW 35 kD, 70 kD and 90 kD), which are distinct to 3,4,5-tri-hydroxy benzoic acid, are detected, as compared to the other beads (control, 2,6-di-hydroxy benzoic acid and control plain beads). […]

The next assay concerns hBD2 mRNA in A549. Description: hBD2 mRNA level in lung carcinoma cell line. In kind it is cell-based. To be noted: human lung carcinoma cell line A549. The procedure:
as §3

A further assay deals with LL-37 in OBA9 cells. Description: EGCG-induced LL-37 (ELISA) in OBA9 cells over expressing DDX5. The format is cell-based, human. To be noted: EGCG 40 ng/ml, 2 hours. As to the method:
The OBA9 cells transfected with either DDX5 over-expression vector (pK0203) or control empty vector (pKO108) were cultured for 48 h. Thereafter, the OBA9 cells were incubated with or without EGCG (40 ng/ml) for 2 hours, and the culture supernatant was subjected to ELISA for the detection of LL-37.
A general note: ELISA stands for enzyme-linked immunosorbent assay.

The subject of the next assay is LL-37 mRNA in A549. Description: LL-37 mRNA level in lung carcinoma cell line. In kind it is cell-based. To be noted: human lung carcinoma cell line A549. As to the method: as §3
Assay [4] relates to Actinobacillus actinomycetemcomitans Y4 (Aa Y4). In words: Bactericidal effect of culture supernatant of treated OBA9 cells. In kind it is cell-based. To be noted: 20 ug/ml; compared with non-treated, catechin- or 2,4-dihydroxy benzoic acid-treated OBA9 supernatant. The procedure: The culture supernatant isolate from OBA9 is treated with 1) EGCG, 2) catechin, 3) 2,4-dihydroxy benzoic acid, and 4) 3,4,5-tri-hydroxy benzoic acid (20 ug/ml, respectively) and examined for their bactericidal effects on Actinobacillus actinomycetemcomitans Y4 (Aa Y4).

Assay [5] has as its system LL-37 mRNA expression in OBA9 cells. Description: LL-37 mRNA expression in human gingival epithelial cells. The format is cell-based. To be noted: 4-hour exposure, 0.1, 1.0 and 10 ug/ml. As to the method:
as §3

The test system of assay [6] is LL-37 mRNA in cheek epithelial cells. In words: In vivo LL-37 mRNA expression by human cheek epithelial cells after mouthwash (RT-PCR). To be noted: mouthwash with EGCG (40 ug/ml), after only 5 minutes from application.
Description: as §2

Assay [7] concerns LL37 protein in OBA9 cells. In words: EGCG-induced LL37 protein expression in OBA9 cells with or without DDX5 RNAi (ELISA). In kind it is cell-based, human. To be noted: OBA9 culture supernatant, EGCG 40 ng/ml, 30 min to 24 hours. The procedure: as §1
The OBA9 cells which were pre-treated with control non-target siRNA or DDX5-siRNA (#A) for 48 hours, as shown in 1-B, were incubated with EGCG (40 ng/ml) for different periods from 30 min to 24 hours. The supernatant harvested from the OBA9 cell culture was subjected to ELISA for LL37 protein.

The subject of the next assay is LL-37 from OBA9 cells. Description: In vitro induction of LL-37 protein (ELISA) from OBA9 cells. In kind it is cell-based, human. To be noted: 20 ug/ml. The procedure:
(§4) Using ELISA systems to detect LL-37 (Forsyth in-house) and hBD2 (Peprotech), 33 natural compounds (20 ug/ml) are examined for their ability to induce LL-37 and hBD2 from OBA9 cells. Although the sensitivity of the hBD2 ELISA is higher than that of LL-37 ELISA (10 pg/ml vs 1 ng/ml, respectively), the induction of LL-37 is more prominent than hBD2 (FIG. 2 A&B, LL-37; C&D, hBD2). […] Bactericidal effects of LL-37 and hBD2 are, in general, potent.
The trihydroxybenzoate derivatives of the Invention and rosemarinic acid, courmarin, catechin gallate, epicatechin gallate, epigallocatechin, and tannic acid are tested to induce LL-37 from OBA9 cells in the absence of EGCG.

The subject of assay [8] is LL-37 expression by OBA9 cells. In words: LL-37 expression by OBA9 cells with Sepharose-coupled benzoic acid isomers. The format is cell-based, human. To be noted: isomer coupled to NBS-activated Sepharose gel. An excerpt: In order to investigate the structure-function relationship underlying EGCG-mediated induction of LL-37 from human gingival epithelial cell line OBA9, different isomers of benzoic acids are examined for their effects on the LL-37 expression by OBA9 cells. Each isomer of benzoic acids is coupled to NBS-activated Sepharose gel (Pierce) using a cross-linker, 1-Ethyl-3-[3-dimethylaminopropyl]carbodiimide (EDC, Pierce). The isomers of benzoic acids include 1) 2,6-di-hydroxy benzoic acid, 2) 2,3,4-tri-hydroxy benzoic acids, 3) 3,4,5-tri-hydroxy benzoic acids, and 4) 2,4,6-tri-hydroxy benzoic acids.

Another assay concerns hBD2 from OBA9 cells. Description: In vitro induction of hBD2 protein (ELISA) from OBA9 cells. In kind it is cell-based, human. To be noted: 20 ug/ml. As to the method:
as §4

Entries after “also recorded” stand apart in the source; their conditions may differ.

T1 sequence (P17844 whole entry): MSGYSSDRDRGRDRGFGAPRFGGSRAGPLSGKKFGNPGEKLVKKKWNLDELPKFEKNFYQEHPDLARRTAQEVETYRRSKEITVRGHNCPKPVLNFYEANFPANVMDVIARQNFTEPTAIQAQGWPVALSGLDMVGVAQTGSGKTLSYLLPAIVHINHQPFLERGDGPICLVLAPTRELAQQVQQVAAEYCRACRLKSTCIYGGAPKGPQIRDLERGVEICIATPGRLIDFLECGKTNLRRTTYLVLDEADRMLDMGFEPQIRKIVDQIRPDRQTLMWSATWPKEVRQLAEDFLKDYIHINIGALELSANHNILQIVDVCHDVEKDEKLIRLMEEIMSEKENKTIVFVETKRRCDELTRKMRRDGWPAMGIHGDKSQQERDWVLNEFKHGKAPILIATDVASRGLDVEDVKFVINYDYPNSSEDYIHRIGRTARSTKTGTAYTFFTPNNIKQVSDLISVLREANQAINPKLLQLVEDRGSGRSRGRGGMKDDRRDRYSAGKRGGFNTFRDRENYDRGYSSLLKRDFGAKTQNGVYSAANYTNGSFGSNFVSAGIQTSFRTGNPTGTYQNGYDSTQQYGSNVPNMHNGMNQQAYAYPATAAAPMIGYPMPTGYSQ

Regarding `O=C(O[C@@H]1Cc2c(O)cc(O)cc2O[C@@H]1c1cc(O)c(O)c(O)c1)c1cc(O)c(O)c(O)c1` [EGCG, epigallocatechin gallate], the “LL37 mRNA expression induced by EGCG” value in the assay on LL37 mRNA in OBA9 cells is recorded as “induced”. Besides, in assay [1], the “expression of proform (18 kD) and secreted form (4.5 kD) of LL-37 in cheek epithelial cells (Western blot)” value is given as “induced”. Moreover, in [2], the “hBD2 mRNA expression” value was “induced”. In addition, the “binding to DDX5 (pull down, 70 kD band)” value in assay [3] is given as “binds to DDX5”. In the assay on hBD2 mRNA in A549, the “production of hBD2 at the mRNA level” value was “increases”. The “LL-37 expression induced by EGCG (ELISA)” value with LL-37 in OBA9 cells (OBA9 with no vector, empty vector pK0108 or pK0203) is recorded as “induced the LL-37 expression in all three conditions”. Also, the “LL-37 expression induced by EGCG in OBA9 transfected with DDX5 over-expression vector versus no vector or empty vector” value with LL-37 in OBA9 cells (P<0.05, Student t test) is recorded as “significantly higher”. Further, the “production of LL-37 at the mRNA level” value in the assay on LL-37 mRNA in A549 is reported as “increases”. The “bactericidal effects of culture supernatant of treated OBA9 cells on Aa Y4” value in [4] was “more bactericidal effects”. The “LL-37 mRNA expression” value in assay [5] is on record as “induced”. In addition, the “LL-37 mRNA expression by cheek epithelial cells (RT-PCR)” value in assay [6] was “up-regulated”. Besides, the “LL37 protein expression after EGCG stimulation (ELISA)” value in assay [7] is “detected as early as 30 min until 24 hours; also recorded: increased in a time dependent manner”.

`O=C(/C=C/c1ccc(O)c(O)c1)O[C@H](Cc1ccc(O)c(O)c1)C(=O)O` [Rosemarinic acid]: the “induction of LL-37 (ELISA)” value with LL-37 from OBA9 cells is on record as “little or no induction”.

For `O=C(O)c1cc(O)c(O)c(O)c1` [3,4,5-tri-hydroxy benzoic acid, 3,4,5-trihydroxybenzoic acid], the “induction of LL-37 (ELISA)” value in the assay on LL-37 from OBA9 cells is given as “more potent than 3,4,-dihydroxy benzoate”. The “binding to DDX5 (pull down, 70 kD band)” value in [3] is “binds to DDX5 expressed in gingival epithelial cells with high affinity”. In [4], the “bactericidal effects of culture supernatant of treated OBA9 cells on Aa Y4” value is “more bactericidal effects”. Also, in assay [8], the “induction of LL-37 expression by OBA9 cells” value (“induction of LL-37 expression” for short) is reported as “show the induction of LL-37 expression”.

Turning to `CCCCCCCCCCCCCC(=O)O[C@@H]1[C@@H](C)[C@@]2(O)[C@@H](C=C(CO)C[C@]3(O)C(=O)C(C)=C[C@@H]23)[C@@H]2C(C)(C)[C@]12OC(C)=O` [PMA], the “induction of hBD2 (ELISA)” value with hBD2 from OBA9 cells was “minimal induction activities”. Also, the “induction of LL-37 (ELISA)” value in the assay with LL-37 from OBA9 cells was “induced LL-37”.

In the case of `O=C(O)c1ccc(O)c(O)c1O` [2,3,4-tri-hydroxy benzoic acids, 2,3,4-trihydroxybenzoic acid], in [3], the “binding to DDX5 (pull down, 70 kD band)” value was “only found in 2,3,4-THDC beads”. For the same compound, in assay [8], the “induction of LL-37 expression” value is “show the induction of LL-37 expression”.

In the case of `O=c1ccc2ccccc2o1` [courmarin], the “induction of LL-37 (ELISA)” value in the assay on LL-37 from OBA9 cells is “little or no induction”.

As to Poly IC, in the assay on hBD2 from OBA9 cells, the “induction of hBD2 (ELISA)” value is reported as “minimal induction activities”. Besides, in the assay with LL-37 from OBA9 cells, the “induction of LL-37 (ELISA)” value is reported as “induced LL-37”.

With `O=C(O)c1c(O)cccc1O` [2,6-di-hydroxy benzoic acids, 2,6-dihydroxy benzoic acid, reference compound], the “induction of LL-37 expression” value in [8] is recorded as “not”.

Consider `O=C(O)c1c(O)cc(O)cc1O` [2,4,6-tri-hydroxy benzoic acids, reference compound], for which, in [8], the “induction of LL-37 expression” value is reported as “not”.

In the case of `O=C(O[C@@H]1Cc2c(O)cc(O)cc2O[C@@H]1c1cc(O)c(O)c(O)c1)c1cc(O)c(O)c(O)c1` [EGCG (90% Teavigo)], the “expression of proform (18 kD) and secreted form (4.5 kD) of LL-37 in cheek epithelial cells (Western blot)” value in [1] is listed as “induced”.

For the origin of these results see patent US20130303619A1, “Antibacterial Compositions” (priority 2009, published 2013).
